# Target: Growth hormone secretagogue receptor type 1 (Homo sapiens, UniProt Q92847)
# Assay: Activity at human GHS-R1a receptor in rat pituitary cells assessed as GH release
# Type: cell-based, Pituitary gland cell
# Sequence of Growth hormone secretagogue receptor type 1 (Q92847 whole entry): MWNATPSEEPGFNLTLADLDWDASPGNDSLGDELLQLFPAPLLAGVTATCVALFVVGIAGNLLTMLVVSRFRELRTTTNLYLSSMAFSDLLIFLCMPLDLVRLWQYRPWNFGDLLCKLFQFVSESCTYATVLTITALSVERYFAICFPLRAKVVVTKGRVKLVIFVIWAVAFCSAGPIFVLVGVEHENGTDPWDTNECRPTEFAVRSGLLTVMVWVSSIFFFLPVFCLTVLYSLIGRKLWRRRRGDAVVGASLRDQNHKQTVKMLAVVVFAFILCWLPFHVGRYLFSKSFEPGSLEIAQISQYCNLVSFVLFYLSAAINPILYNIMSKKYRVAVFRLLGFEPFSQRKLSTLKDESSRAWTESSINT
row,EC50 [nM],SMILES
1,4.8,CC(C)(N)C(=O)N[C@H](CCCc1ccccc1)C(=O)N1CCC2(CC1)CSc1ccccc12
2,5.6,CC(C)(N)C(=O)N[C@H](Cc1c[nH]c2ccccc12)C(=O)N1CCC2(CC1)CSc1ccccc12
3,2.1,CC(C)(N)C(=O)N[C@H](Cc1c[nH]c2ccccc12)C(=O)N1CCC2(CC1)CS(=O)(=O)c1ccccc12
4,10,CC(C)(N)C(=O)N[C@H](COCc1ccccc1)C(=O)N1CCC2(CC1)CSc1ccccc12
5,8.5,CC(C)(N)C(=O)N[C@H](COCc1ccccc1)C(=O)N1CCC2(CC1)C[S+]([O-])c1ccccc12 (stereo partly drawn)
6,2.5,CC(C)(N)C(=O)N[C@H](CCCc1ccccc1)C(=O)N1CCC2(CC1)C[S+]([O-])c1ccccc12 (stereo partly drawn)
7,1.1,CC(C)(N)C(=O)N[C@H](CCCc1ccccc1)C(=O)N1CCC2(CC1)CS(=O)(=O)c1ccccc12
8,2.7,CC(C)(N)C(=O)N[C@H](CCCc1ccccc1)C(=O)N1CCC2(CC1)COc1ccccc12
9,8.5,CC(C)(N)C(=O)N[C@H](COCc1ccccc1)C(=O)N1CCC2(CC1)COc1ccccc12
10,6,CC(C)(N)C(=O)N[C@H](CCc1ccccc1)C(=O)N1CCC2(CC1)CS(=O)(=O)c1ccccc12
11,57,CC(C)(N)C(=O)N[C@H](CCc1ccccc1)C(=O)N1CCC2(CC1)CSc1ccccc12
12,5,CC(C)(N)C(=O)N[C@H](COCc1ccccc1)C(=O)N1CCC2(CC1)CS(=O)(=O)c1ccccc12
13,0.6,CC(C)(N)C(=O)N[C@H](Cc1c[nH]c2ccccc12)C(=O)N1CCC2(CC1)C[C@@H](O)c1ccccc12
14,3,CNC(C)(C)C/C=C/C(=O)N(C)[C@H](Cc1ccc2ccccc2c1)C(=O)N(C)Cc1ccccc1
15,4,CCN1N=C2CCN(C(=O)[C@@H](COCc3ccccc3)NC(=O)C(C)(C)N)C[C@]2(Cc2ccccc2)C1=O
16,3,CN1N=C2CCN(C(=O)[C@@H](COCc3ccccc3)NC(=O)C(C)(C)N)C[C@]2(Cc2ccccc2)C1=O
17,0.8,CCNC(=O)[C@@]1(Cc2ccccc2)CCCN(C(=O)[C@@H](Cc2c[nH]c3ccccc23)NC(=O)C(C)(C)N)C1

row,EC50 [nM],SMILES
1,10,CC(C)(N)C(=O)N[C@H](CCCc1ccccc1)C(=O)N1CCC2(CCc3ccccc32)CC1
2,2,CC(C)(N)C(=O)N[C@@H]1CCc2ccccc2N(Cc2ccc(-c3ccccc3CNC(=O)NCCO)cc2)C1=O
3,6,CCNC(=O)NCc1ccccc1-c1ccc(CN2C(=O)[C@H](NC(=O)C(C)(C)N)CCc3ccccc32)cc1
4,5,CNC(C)(C)C/C=C/C(=O)N(C)[C@H](Cc1ccc2ccccc2c1)C(=O)N(C)CCc1ccccc1OCCO
5,0.8,CNC(C)(C)C/C=C/C(=O)N(C)[C@H](Cc1ccc2ccccc2c1)C(=O)N(C)CCc1cccs1
6,5,CN(CCc1cccs1)C(=O)[C@@H](Cc1ccc(-c2ccccc2)cc1)N(C)C(=O)/C=C/CC(C)(C)N
7,18,CN(CCc1ccccc1NS(C)(=O)=O)C(=O)[C@@H](Cc1ccc2ccccc2c1)N(C)C(=O)/C=C/CC(C)(C)N
8,3,CC(C)(N)C(=O)N[C@H](COCc1ccccc1)C(=O)N1CCC2=NNC(=O)[C@@]2(Cc2ccccc2)C1
9,7.5,CN(CCc1cccs1)C(=O)[C@@H](Cc1ccc2ccccc2c1)N(C)C(=O)/C=C/CC(C)(C)N
10,17,CC(C)(N)C(=O)N[C@H](COCc1ccccc1)C(=O)N1CCC2(CCc3ccccc32)CC1
11,1.6,CCOC(=O)[C@@]1(Cc2ccccc2)CCCN(C(=O)[C@@H](Cc2c[nH]c3ccccc23)NC(=O)C(C)(C)N)C1
12,5,CN(CCc1ccccc1OCCO)C(=O)[C@@H](Cc1ccc2ccccc2c1)N(C)C(=O)/C=C/CC(C)(C)N
13,1,CNC(=O)NCc1ccccc1-c1ccc(CN2C(=O)[C@H](NC(=O)C(C)(C)N)CCc3ccccc32)cc1
14,22,CC(C)(N)C(=O)N[C@H](CCc1ccccc1)C(=O)N1CCC2(CCc3ccccc32)CC1
15,14,CC(C)(N)C(=O)N[C@H](Cc1c[nH]c2ccccc12)C(=O)N1CCC2(CCc3ccccc32)CC1 [L-162752]
16,3,CNC(=O)[C@@H](Cc1ccccc1)N(C)C(=O)[C@@H](Cc1ccc2ccccc2c1)N(C)C(=O)/C=C/CC(C)(C)N [TABIMORELIN]

# Reference: ChEMBL document CHEMBL1147797, “Construction of human ghrelin receptor (hGHS-R1a) model using a fragmental prediction approach and validation through docking analysis” (J Med Chem, 2006)
